Results on one compound are retold here after US20260000670A1 (priority 2022, published 2026).

One data set concerns human whole blood. In words: AAV-mediated cytokine release in human whole blood (one AAV8 pre-immune donor). It is filed as cell-based. The settings on record: dasatinib 12.5 or 50 nM, 24 hrs with 5E11 vg/mL AAV8-hSEAP. As to the method:
FIGS. 5A-5B. Effect of dasatinib on AAV-mediated cytokine release in human whole blood. The production of low levels of IFN-γ and IL-6 in whole blood are stimulated after 24 hrs incubation with 5E11 vg/mL of AAV8-hSEAP. […] Depicted are cytokine concentrations (pg/mL+/−SD, left), fold increases over the level measured in the PBS control (middle) and percentages of inhibition of AAV-dependent cytokine release (right, calculated as 100 × (concentration with AAV8 alone-concentration with AAV8 and dasatinib)/(concentration with AAV8 alone)), respectively. (FIG. 5A) Interferon-γ production. (FIG. 5B) IL-6 production.
To assess whether dasatinib could affect AAV-mediated cytokine release, an assay was performed in whole blood from a healthy donor. This donor was seropositive for anti-AAV8 antibodies (IgG titer: 1/21870; IgM titer: 1/810). Whole blood from an AAV8 pre-immune donor was incubated in triplicates with 5E11 vg/mL (GC/mL) of an AAV8-hSEAP vector, in the presence or absence of 12.5 nM or 50 nM dasatinib. Lipopolysaccharide (LPS) and Lemtrada (alemtuzumab, anti-CD52, Genzyme), a monoclonal antibody known to induce strong cytokine release in blood, were used as positive controls at a concentration of 1 μg/ml and 0.1 μg/ml respectively. […] After 24 hrs, plasma supernatants were collected and cytokines measured using Quanterix kits with the SP-X imaging and analysis system (Simoa).

The conditions of data set [1]: Lindauer M et al, 2010; cited from earlier work.
The subject of a further data set is C57B1/6 mice. In words: transgene expression (hSEAP, hFIX) in serum following rAAV8 re-administration. It is filed as in vivo. As to the method:
FIG. 1. rAAV8 readministration in mice and Dasatinib treatment. C57B1/6 mice were intravenously dosed on study day 1 with a rAAV8 encoding the hSEAP (human secreted alkaline phosphatase) at the dose of 1E12 vg/kg. On study day 22, they received a second rAAV8 encoding hFIX (human Factor IX) at the dose of 5E13 vg/kg. […] Group 2 (immunized mice, n=10) received both rAAV8 injections. Group 3 mice (n=10) received the two rAAV8 injections and were treated by oral gavage with 50 mg/kg dasatinib twice per day for 7 days starting on the day of first rAAV8 dosing. Blood samples were collected one day before and every 7 days after the first rAAV8 treatment.
FIGS. 4A-4B. Dasatinib treatment allows transgene expression following rAAV re-administration. Serum was isolated from blood collected on study days 0, 8, 15, 21, 29 and 36 (FIG. 1). (FIG. 4A) Expression of the first transgene hSEAP was measured by chemiluminescence. (FIG. 4B) After AAV8 re-administration, expression of the second transgene hFactorIX was measured by ELISA. Mean concentrations are shown +/−SD.
To assess whether dasatinib could efficiently prevent anti-AAV antibody formation after rAAV administration and allow efficient re-administration of rAAV, a study was conducted in mice (FIG. 1). Groups of C57B1/6 mice were intravenously dosed with a first rAAV8 encoding hSEAP (human secreted alkaline phosphatase, under control of a CMV promoter) at the dose of 1E12vg/kg on study day 1. On study day 22, they were dosed with a second rAAV8 encoding hFIX (human Factor IX, under control of a CMV promoter) at the dose of 5E13 vg/kg. […]
Expression of the first transgene hSEAP and second transgene hFIX were measured in the serum samples from the experiment presented above (FIG. 1, Example 1). As expected, human SEAP was detected in the serum of mice from Groups 2 and 3, already 7 days after injection of AAV8-hSEAP on study day 1 (FIG. 4A). […] In contrast, hFIX expression was detected in the serum of all mice from the non-immunized Group 1 (mean: 2107 ng/ml) as well as in most mice from the dasatinib-treated Group 3 (average: 1398 ng/ml).

On to `Cc1nc(Nc2ncc(C(=O)Nc3c(C)cccc3Cl)s2)cc(N2CCN(CCO)CC2)n1` [dasatinib, N-(2-chloro-6-methylphenyl)-2-[[6-[4-(2-hydroxyethyl)-1-piperazinyl]-2-methyl-4-pyrimidinyl]amino]-5-thiazole carboxamide monohydrate], for which, in the data set on human whole blood, the IFN-γ production entry is given as “reduced dose-dependently” and the IL-6 production entry was “reduced dose-dependently”. Moreover, in data set [1], the half-life result was “very short”. In addition, the “human SEAP in serum” value in the data set with C57B1/6 mice (Group 3, 7 days after AAV8-hSEAP on study day 1) is “detected”. Also, in the data set with C57B1/6 mice (Group 3, after AAV8-hFIX 5E13 vg/kg on day 22, dasatinib 50 mg/kg twice per day for 7 days at first rAAV8 dosing), the “hFIX expression in serum (average)” value amounted to 1398 ng/mL. Also, the “hFIX expression detected in serum” value in the data set with C57B1/6 mice (Group 3, after second rAAV8 on day 22) is “in most mice”.
